Measurements reported in patent publication US5855905A, “Compound preparation for the treatment of hypogonadal men and men with hypophyseal diseases” (priority 1996, dated 1999).

Columns and labels:
[1] = 5α-dihydrotestosterone vs testosterone; cited from earlier work
[2] = test system: endogenic testosterone production; conditions: cited from earlier work; for inhibition of endogenic testosterone production: Oettel 1993
[3] = Pharmacokinetic behaviour of DHT (patch) in combination with estriol gel, transdermal, 18 healthy young male test persons; conditions: human, in vivo, topical or ocular
Protocol: Pharmacokinetic Behaviour of Dihydrotestosterone (DHT) in Combination with Estriol Gel
In a randomized study, the pharmacokinetic behaviour of DHT and estriol after transdermal application was examined in 18 healthy young male test persons.
The DHT patch contains 150 mg of the active ingredient and was left on the test persons' skin for 24 hours. This galenic form releases 6 mg of DHT per day.
The estriol gel contains 5 mg of active ingredient in 0.5 g of gel. This gel formulation was applied one time to 150 cm^2 of skin (forearm).
For analysis, 12 blood samples were taken from each test person after the application over a period of 48 hours.

hypogonadal men = assay: Clinical study in 23 hypogonadal men: clinical findings (efficacy and side effects)
[4] = test system: cholesterol, lipoprotein and lipase levels; conditions: testosterone esters; cited from earlier work
[5] = Clinical study in hypogonadal men: serum hormone levels
[6] = Pharmacokinetic behaviour of mesterolone in combination with estradiol valerate, single oral application, 24 healthy young male test persons; conditions: human, in vivo
Protocol: Pharmacokinetic Behaviour of Mesterolone in Combination with Estradiol Valerate (EV)
In a randomized study, the kinetic behaviour of mesterolone (25 mg tablet) in combination with EV (1 mg lozenge) after a single oral application was examined in 24 healthy young male test persons.
Each test person was administered mesterolone and EV after a monitored fasting period of 12 hours. After the application, 18 blood samples were taken from each test person over a period of 60 hours.

[7] = cited from earlier work
[8] = mesterolone 25 mg tablet + EV 1 mg lozenge, single oral

## C[C@]12CCC(=O)C[C@@H]1CC[C@@H]1[C@@H]2CC[C@]2(C)[C@@H](O)CC[C@@H]12 [DHT, 5α-dihydrotestosterone]
[1]
  activity relative to testosterone: about twice as active as testosterone
[2]
  inhibition of endogenic testosterone production: not been observed
[3]; 150 mg
  Cmax: 4.51 ± 1.23 ng/mL

## CCCCCCC(=O)O[C@H]1CC[C@H]2[C@@H]3CCC4=CC(=O)CC[C@]4(C)[C@H]3CC[C@]12C [testosterone enanthate]
Hypogonadal men; 12 months
  gynaecomastia: Five out of 12
  increase in the size of the prostatic glands / prostatic hyperplasia: could not be detected
  pelage increase: All men experienced a pelage increase
  prostate-specific antigen (PSA), change: slightly up in all patients
  volume/weight of testicles: the volume of their testicles got smaller
Hypogonadal men; Arm 1
  Collagen depletion: not detected
  thickening of the skin, increase in water retention, tension and elasticity of the tissue: All participants in the study showed a thickening of the skin, an increase in water retention, and an improvement of the tension and elasticity of the tissue
Hypogonadal men; Arm 1, 12 months
  improvement of the morning erection: Nine out of 12
Hypogonadal men; Arm 1, n=12
  patients free of complaints: Nine
Hypogonadal men; Arm 1 after 4 months of treatment, Arm 2 12 months
  increased susceptibility to acne / development of acne: Seven of the 12
Hypogonadal men; Arm 1 after 4 months, Arm 2 12 months
  voice pitch / voice change: voice pitch of all men lowered towards a bass tone
Hypogonadal men; Arm 1 n=12, Arm 2 n=11, 12 months
  increase in penis size: 11 men/patients
Hypogonadal men; after 6 months of treatment
  bone density: All patients showed an apparent increase in bone density
Hypogonadal men; hot flashing, exhaustion, weakness of concentration, reduced efficiency, disgruntlement, disturbances of libido and potency
  symptoms of andropause: became less frequent
[4]
  effect on HDL cholesterol: can cause a minor suppression
  effect on total and LDL cholesterol levels: only have a minor effect
[2]; patients with working gonadal testosterone biosynthesis (Humpel and Oettel 1994)
  period of reversible inhibition of endogenic testosterone production: about 2 weeks
[5]; 12 months
  LH levels in the serum / LH synthesis: reduced in the serum of all participants
[5]; Arm 1, 250 mg i.m.
  maximum values compared with testosterone levels in healthy men: significant increase
[5]; Arm 1, testosterone, subsequent applications
  cumulation: no cumulation

## C[C@]12CC[C@@H]3c4ccc(O)cc4CC[C@H]3[C@@H]1C[C@@H](O)[C@@H]2O [estriol]
[3]; 5 mg
  Cmax: 0.00882 ± 0.00254 ng/mL

## C[C@H]1CC(=O)C[C@@H]2CC[C@H]3[C@@H]4CC[C@H](O)[C@@]4(C)CC[C@@H]3[C@]21C [mesterolone]
[2]
  inhibition of endogenic testosterone production: not been observed
[6]; 60 h after single oral mesterolone 25 mg + EV 1 mg
  concentration at 60 h: 0.48 ng/mL
[6]; [8]
  Cmax: 6.9 ng/mL
  Tmax: 8.9 h
  half-life: 13.2 h
[6]; mesterolone 25 mg tablet + EV 1 mg lozenge, single oral, 60 h
  AUC at 60 h: 177 ng·h/mL

## C[C@]12CC[C@@H]3c4ccc(O)cc4CC[C@H]3[C@@H]1CC[C@@H]2O [estradiol, 17β-estradiol]
[2]
  inhibition of endogenic testosterone production: not been observed

## C[C@]12CC[C@H]3[C@@H](CCC4=CC(=O)CC[C@@]43C)[C@@H]1CC[C@@H]2O [testosterone]
[7]; intramuscular injection (Tenover 1992)
  estradiol levels in the plasma: doubled
[7]; percutaneous application (Kuhn 1986)
  increase of estradiol levels in the plasma: 70%
